Assay results taken from PubChem BioAssay AID1963443 (Molecular Pharmacology Branch, DTP, NCI, 2024).

System: MDA-MB-231 complex spheroids, growth inhibition
Experiment: Anticancer human tumor MDA-MB-231 cell line growth inhibition [Asc];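 further: spheroids exposed to compounds for 7 days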
Settings: for IC50: curve of first compound; for viability, T/C: stronger effect = lower value
In short: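 Tumor cells were grown as multicellular spheroids with stromal HUVEC and mesenchymal stem cells and treated singly or in combination. Concentrations fell in half-log steps from the clinical Cmax, or from 10 microM where none was known.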

With `CCN1CCN(Cc2ccc(Nc3ncc(F)c(-c4cc(F)c5nc(C)n(C(C)C)c5c4)n3)nc2)CC1` + CNC(C)C(=O)NC1CN(S(=O)(=O)c2cccc(S(=O)(=O)N3CCC4CCC(C(=O)NC(c5ccccc5)c5ccccc5)N4C(=O)C(NC(=O)C(C)NC)C3)c2)CCC2CCC(C(=O)NC(c3ccccc3)c3ccccc3)N2C1=O the IC50 (second compound 0.01 µM) was < 0.00316 µM, the IC50 (second compound 0.0316 µM) was < 0.00316 µM and the IC50 (second compound 0.1 µM) was < 0.00316 µM. The IC50 (second compound 0.316 µM) was < 0.00316 µM, the IC50 (second compound 1 µM) was < 0.00316 µM and the viability, T/C (second compound 0.01 µM, first compound 0.00316 µM) was 2.49%. It also gave a viability, T/C (second compound 0.01 µM, first compound 0.01 µM) of 2.43%, a viability, T/C (second compound 0.01 µM, first compound 0.0316 µM) of 2.51% and a viability, T/C (second compound 0.01 µM, first compound 0.1 µM) of 1.88%. The viability, T/C (second compound 0.01 µM, first compound 0.316 µM) was 2.98%, the viability, T/C (second compound 0.01 µM, first compound 1 µM) was 2.28% and the viability, T/C (second compound 0.0316 µM, first compound 0.00316 µM) was 1.93%. For the same compound, the viability, T/C (second compound 0.0316 µM, first compound 0.01 µM) was 1.53%, the viability, T/C (second compound 0.0316 µM, first compound 0.0316 µM) was 1.38% and the viability, T/C (second compound 0.0316 µM, first compound 0.1 µM) was 1.94%. It also gave a viability, T/C (second compound 0.0316 µM, first compound 0.316 µM) of 1.87%, a viability, T/C (second compound 0.0316 µM, first compound 1 µM) of 1.71% and a viability, T/C (second compound 0.1 µM, first compound 0.00316 µM) of 1.19%. The viability, T/C (second compound 0.1 µM, first compound 0.01 µM) was 1.19%, the viability, T/C (second compound 0.1 µM, first compound 0.0316 µM) was 1.61% and the viability, T/C (second compound 0.1 µM, first compound 0.1 µM) was 1.32%. The viability, T/C (second compound 0.1 µM, first compound 0.316 µM) was 1.44%, the viability, T/C (second compound 0.1 µM, first compound 1 µM) was 1.16% and the viability, T/C (second compound 0.316 µM, first compound 0.00316 µM) was 0.98%. The viability, T/C (second compound 0.316 µM, first compound 0.01 µM) was 1.26%, the viability, T/C (second compound 0.316 µM, first compound 0.0316 µM) was 1.17% and the viability, T/C (second compound 0.316 µM, first compound 0.1 µM) was 1.28%. For the same compound, the viability, T/C (second compound 0.316 µM, first compound 0.316 µM) was 1.38%, the viability, T/C (second compound 0.316 µM, first compound 1 µM) was 1.15% and the viability, T/C (second compound 1 µM, first compound 0.00316 µM) was 1.1%. It also gave a viability, T/C (second compound 1 µM, first compound 0.01 µM) of 0.95%, a viability, T/C (second compound 1 µM, first compound 0.0316 µM) of 1.26% and a viability, T/C (second compound 1 µM, first compound 0.1 µM) of 1.51%. The viability, T/C (second compound 1 µM, first compound 0.316 µM) was 1.22% and the viability, T/C (second compound 1 µM, first compound 1 µM) was 1.35%.
`C=C(F)C(=O)N1CCN(c2nc(OCC3CCCN3C)nc3c2CCN(c2cccc4cccc(Cl)c24)C3)CC1CC#N` (stereo not given) + CCN1C(C(=O)NC23CCC(C(=O)O)(CC2)CC3)C(c2cccc(Cl)c2F)C2(C(=O)Nc3cc(Cl)ccc32)C12CCCCC2 showed an IC50 (second compound 0.03 µM) of 3.31 µM, an IC50 (second compound 0.0949 µM) of 3.22 µM and an IC50 (second compound 0.3 µM) of 3.09 µM. It also gave an IC50 (second compound 0.949 µM) of 3.67 µM, an IC50 (second compound 3 µM) of 2.37 µM and a viability, T/C (second compound 0.03 µM, first compound 0.0316 µM) of 102%. It also gave a viability, T/C (second compound 0.03 µM, first compound 0.1 µM) of 101%, a viability, T/C (second compound 0.03 µM, first compound 0.316 µM) of 88.1% and a viability, T/C (second compound 0.03 µM, first compound 1 µM) of 90.2%. The viability, T/C (second compound 0.03 µM, first compound 3.16 µM) was 51.2%, the viability, T/C (second compound 0.03 µM, first compound 10 µM) was 0.47% and the viability, T/C (second compound 0.0949 µM, first compound 0.0316 µM) was 100%. The viability, T/C (second compound 0.0949 µM, first compound 0.1 µM) was 108%, the viability, T/C (second compound 0.0949 µM, first compound 0.316 µM) was 97.9% and the viability, T/C (second compound 0.0949 µM, first compound 1 µM) was 97.1%. The viability, T/C (second compound 0.0949 µM, first compound 3.16 µM) was 50.7%, the viability, T/C (second compound 0.0949 µM, first compound 10 µM) was 0.33% and the viability, T/C (second compound 0.3 µM, first compound 0.0316 µM) was 112%. The viability, T/C (second compound 0.3 µM, first compound 0.1 µM) was 107%, the viability, T/C (second compound 0.3 µM, first compound 0.316 µM) was 110% and the viability, T/C (second compound 0.3 µM, first compound 1 µM) was 105%. The viability, T/C (second compound 0.3 µM, first compound 3.16 µM) was 48.9%, the viability, T/C (second compound 0.3 µM, first compound 10 µM) was 0.55% and the viability, T/C (second compound 0.949 µM, first compound 0.0316 µM) was 112%. The viability, T/C (second compound 0.949 µM, first compound 0.1 µM) was 116%, the viability, T/C (second compound 0.949 µM, first compound 0.316 µM) was 114% and the viability, T/C (second compound 0.949 µM, first compound 1 µM) was 107%. It also gave a viability, T/C (second compound 0.949 µM, first compound 3.16 µM) of 57.3%, a viability, T/C (second compound 0.949 µM, first compound 10 µM) of 1.4% and a viability, T/C (second compound 3 µM, first compound 0.0316 µM) of 94.3%. For the same compound, the viability, T/C (second compound 3 µM, first compound 0.1 µM) was 99.5%, the viability, T/C (second compound 3 µM, first compound 0.316 µM) was 97.6% and the viability, T/C (second compound 3 µM, first compound 1 µM) was 86.9%. It also gave a viability, T/C (second compound 3 µM, first compound 3.16 µM) of 37.7% and a viability, T/C (second compound 3 µM, first compound 10 µM) of 0.24%.
`CCN1C(C(=O)NC23CCC(C(=O)O)(CC2)CC3)C(c2cccc(Cl)c2F)C2(C(=O)Nc3cc(Cl)ccc32)C12CCCCC2` (stereo not given) + Cc1c(S(C)(=O)=O)c(-c2cc(F)cc(N3CCN(c4ccc(NS(=O)(=O)c5ccc(NC(CCN6CCC(C(=O)OCCCP(=O)(O)O)CC6)CSc6ccccc6)c(S(=O)(=O)C(F)(F)F)c5)cc4)CC3)c2)c(-c2ccc(Cl)cc2)n1C(C)C was tested, and the IC50 (second compound 0.1 µM) was > 3 µM, the IC50 (second compound 0.316 µM) was > 3 µM and the IC50 (second compound 1 µM) was > 3 µM. For the same compound, the IC50 (second compound 3.16 µM) was > 3 µM, the IC50 (second compound 10 µM) was > 3 µM and the viability, T/C (second compound 0.1 µM, first compound 0.00949 µM) was 90%. The viability, T/C (second compound 0.1 µM, first compound 0.03 µM) was 82.6%, the viability, T/C (second compound 0.1 µM, first compound 0.0949 µM) was 103% and the viability, T/C (second compound 0.1 µM, first compound 0.3 µM) was 103%. The viability, T/C (second compound 0.1 µM, first compound 0.949 µM) was 101%, the viability, T/C (second compound 0.1 µM, first compound 3 µM) was 108% and the viability, T/C (second compound 0.316 µM, first compound 0.00949 µM) was 104%. The viability, T/C (second compound 0.316 µM, first compound 0.03 µM) was 105%, the viability, T/C (second compound 0.316 µM, first compound 0.0949 µM) was 105% and the viability, T/C (second compound 0.316 µM, first compound 0.3 µM) was 106%. The viability, T/C (second compound 0.316 µM, first compound 0.949 µM) was 106%, the viability, T/C (second compound 0.316 µM, first compound 3 µM) was 94.9% and the viability, T/C (second compound 1 µM, first compound 0.00949 µM) was 100%. The viability, T/C (second compound 1 µM, first compound 0.03 µM) was 100%, the viability, T/C (second compound 1 µM, first compound 0.0949 µM) was 104% and the viability, T/C (second compound 1 µM, first compound 0.3 µM) was 100%. It also gave a viability, T/C (second compound 1 µM, first compound 0.949 µM) of 105%, a viability, T/C (second compound 1 µM, first compound 3 µM) of 82% and a viability, T/C (second compound 3.16 µM, first compound 0.00949 µM) of 94.5%. It also gave a viability, T/C (second compound 3.16 µM, first compound 0.03 µM) of 98.4%, a viability, T/C (second compound 3.16 µM, first compound 0.0949 µM) of 92.9% and a viability, T/C (second compound 3.16 µM, first compound 0.3 µM) of 91.2%. It also gave a viability, T/C (second compound 3.16 µM, first compound 0.949 µM) of 93.4%, a viability, T/C (second compound 3.16 µM, first compound 3 µM) of 70.8% and a viability, T/C (second compound 10 µM, first compound 0.00949 µM) of 94%. The viability, T/C (second compound 10 µM, first compound 0.03 µM) was 95.7%, the viability, T/C (second compound 10 µM, first compound 0.0949 µM) was 93.5% and the viability, T/C (second compound 10 µM, first compound 0.3 µM) was 93.7%. It also gave a viability, T/C (second compound 10 µM, first compound 0.949 µM) of 83.3% and a viability, T/C (second compound 10 µM, first compound 3 µM) of 57.6%.
